Literature values as cited in patent US11207297B2, “Liquid pharmaceutical composition of clonidine” (SYRI LTD, priority 2016, dated 2021).

Settings: after oral administration

Clc1cccc(Cl)c1N=C1NCCN1 [clonidine, N-(2,6-dichlorophenyl)-4,5-dihydro-1H-imidazol-2-amine]
Absorption from the gastrointestinal tract: almost completely absorbed
